Measured values published in patent US20070281302A1 (priority 1998, published 2007).
Entries after “also recorded” stand apart in the source; their conditions may differ. No end group written: not given here.

How the values were obtained:
[1] = tested on: B. anthracis (Sterne and ΔAmes) spores; assay type: binding, Bacillus anthracis
B. cereus T spores = assay type: binding, Bacillus cereus
[2] = tested on: B. thuringiensis subsp. kurstaki spores; assay type: binding, Bacillus thuringiensis
[3] = tested on: spores of 15 of the other Bacillus strains; assay type: binding
[4] = tested on: B. anthracis spores (Sterne, delta-Ames); assay type: binding, Bacillus anthracis
[5] = tested on: spores of B. thuringiensis subsp. kurstaki; assay type: binding, Bacillus thuringiensis
spores of B. cereus T = assay type: binding, Bacillus cereus
[6] = tested on: spores of the other Bacillus strains; assay type: binding
[7] = tested on: Bacillus spores of each experiment shown in FIG. 3; assay type: binding
B. cereus T spore = assay type: binding, Bacillus cereus
spores of B. subtilis = assay type: binding, Bacillus subtilis
B. subtilis spores = assay type: binding, Bacillus subtilis
[8] = tested on: B. anthracis spores (delta-Ames, Sterne); assay type: binding, Bacillus anthracis
[9] = tested on: vegetative cells of the Sterne and ΔAmes strains; assay type: binding, Bacillus anthracis
spores of B. cerues T = assay type: binding, Bacillus cereus

Substance: ATYPLPIRGGGC-PE (PE conjugate)
- binding of the conjugate to spores [1]: extensive binding
- enhancement of binding relative to TYPLPIRGGGC-PE [1]: ~10 fold
- binding of the conjugate to spores (B. cereus T spores): limited binding
- binding relative to TYPLPIRGGGC-PE (B. cereus T spores): only slightly enhanced
- binding of the conjugate to spores [2]: limited binding
- binding relative to TYPLPIRGGGC-PE [2]: only slightly enhanced
- binding of the conjugate to spores [3]: did not permit detectable binding; also recorded: No peptide-conjugate binding was observed
- fluorescent labeling of spores [4]: completely encircled by fluorescent ligand; also recorded: readily detectable
- fluorescent labeling of spores [5]: low-level but detectable binding
- fluorescent labeling of spores (spores of B. cereus T): low-level but detectable binding
- fluorescent labeling of spores [6]: not other strains; also recorded: essentially nonfluorescent

Substance: HWHHHGHGGGC (also: PE conjugate) [HWHHHGHGGGC-PE]
- spore binding of control peptide-PE conjugates [7]: No significant binding

Substance: ILPRPYTGGGC (also: PE conjugate) [ILPRPYTGGGC-PE]
- spore binding of control peptide-PE conjugates [7]: No significant binding

Substance: LLSPLHR [Sequence 6 (Table 5)]
- number of phage containing the sequence (B. cereus T spore): 6. (2)

Substance: NHFL (B. subtilis)
- binding to the spores (ligand quality) (spores of B. subtilis): poor ligand

Substance: NHFLP (B. subtilis)
- binding to the spores (ligand quality) (spores of B. subtilis): tight binding

Substance: NHFLPKV [Isolate 4 (Table 1)]
- binding of the peptide to the spore (B. subtilis spores): bound tightly
- eluted phage examined that contained the sequence (B. subtilis spores): Seven of the ten
- enrichment of this phage (B. subtilis spores): 700 fold

Substance: SLLPGLPGGGC-PE (PE conjugate)
- binding of the conjugate to spores [1]: no binding
- binding of the conjugate to spores (B. cereus T spores): extensive binding
- binding of the conjugate to spores [2]: extensive binding
- binding of the conjugate to spores [3]: No peptide-conjugate binding was observed

Substance: THRLPSR [Sequence 1 (Table 5)]
- number of phage containing the sequence (B. cereus T spore): 1. (2)

Substance: TYPIPFR [Isolate 6 (Table 3)]
- number of phage containing the sequence [8]: three

Substance: TYPIPIR [Isolate 5 (Table 3)]
- number of phage containing the sequence [8]: three

Substance: TYPLPIRGGGC-PE (PE conjugate)
- binding of the peptide-PE conjugate to spores [1]: concentration-dependent binding
- effect of bovine serum albumin on conjugate binding [1]: not inhibited
- binding of the peptide-PE conjugate to spores, compared with B. anthracis spores (B. cereus T spores): weaker (or less extensive)
- binding of the peptide-PE conjugate to spores, compared with B. anthracis spores [2]: weaker (or less extensive)
- binding of the peptide-PE conjugate to spores [3]: did not bind
- binding of the peptide-PE conjugate to spores at the highest concentration [3]: minimal binding
- binding to vegetative cells [9]: did not bind

Substance: TYPVPHR [Isolate 9 (Table 3)]
- number of phage containing the sequence [8]: once

Substance: WSPLHKH [Sequence 8 (Table 5)]
- binding to spores (spores of B. cerues T): tight binding
- eluted phage that contained the sequence (spores of B. cerues T): Six of the twenty
- enrichment of this phage (spores of B. cerues T): 300 fold
